Data as given in US4816586A, “Delta opioid receptor antagonists” (Regents of the University of Minnesota, priority 1987, dated 1989).

Columns and labels:
Assay type in all cases: cell-based
delta opioid receptor [1] = molecular target: T1, delta opioid receptor (Mus musculus, UniProt P32300); test: Antagonism of DADLE (delta agonist) in the mouse vas deferens (MVD) preparation; design: Both vasa deferentia were dissected out of mice; from tissue; host or cells: mouse vas deferens; key to Ke, DADLE: No agonist antagonism observed; conditions: for Kb: compound 100 or 200 nM, 15 min incubation, read-out: Ke, DADLE; for relative delta antagonist potency: compared within the series
T1 sequence (P32300 whole entry): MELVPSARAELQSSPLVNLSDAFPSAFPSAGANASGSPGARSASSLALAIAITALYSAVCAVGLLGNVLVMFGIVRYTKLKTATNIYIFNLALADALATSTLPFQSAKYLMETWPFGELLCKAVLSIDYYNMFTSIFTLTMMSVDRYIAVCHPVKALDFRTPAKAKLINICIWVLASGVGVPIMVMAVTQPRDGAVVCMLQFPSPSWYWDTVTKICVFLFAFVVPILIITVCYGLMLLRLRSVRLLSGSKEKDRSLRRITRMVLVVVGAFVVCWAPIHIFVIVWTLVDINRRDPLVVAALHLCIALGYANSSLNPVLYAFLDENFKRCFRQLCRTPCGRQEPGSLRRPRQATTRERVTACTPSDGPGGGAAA
Experimental: (§1) The organ bath was maintained at 37° C.
The results of these bioassays are summarized on Table IV, below.

mu opioid receptor = mu opioid receptor (Cavia porcellus, UniProt A0ACM8Q262); test: Antagonism of morphine (mu agonist) in the guinea pig ileum (GPI) preparation; design: key to Ke, M: No agonist antagonism observed; conditions: for Kb: compound 100 or 200 nM, 15 min incubation, read-out: Ke
Chain of mu opioid receptor (A0ACM8Q262 1-400): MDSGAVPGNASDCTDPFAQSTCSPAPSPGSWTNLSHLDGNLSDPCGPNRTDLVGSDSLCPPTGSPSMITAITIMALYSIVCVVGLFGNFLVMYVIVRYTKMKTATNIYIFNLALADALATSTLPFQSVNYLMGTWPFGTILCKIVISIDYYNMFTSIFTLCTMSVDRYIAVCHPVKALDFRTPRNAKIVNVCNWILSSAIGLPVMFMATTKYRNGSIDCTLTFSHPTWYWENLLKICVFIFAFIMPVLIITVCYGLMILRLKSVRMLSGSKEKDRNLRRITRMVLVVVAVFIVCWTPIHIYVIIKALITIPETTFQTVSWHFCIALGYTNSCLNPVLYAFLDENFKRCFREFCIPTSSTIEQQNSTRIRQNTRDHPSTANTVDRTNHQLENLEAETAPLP
Experimental: (§2) 1. Guinea Pig Ileal Longitudinal Muscle (GPI). Ilea from guinea pigs were taken approximately 10 cm from the ileocaecal junction, and a strip of longitudinal muscle with the myenteric plexus attached was prepared by method of Rang et al., Brit. J. Pharmacol., 22, 356 (1964), the disclosure of which is incorporated by reference herein. A 1 cm portion of this strip was then mounted between two platinum electrodes placed in a 10 ml organ bath and connected to an isometric transducer; contractions were recorded on a polygraph. Contractions of the ileal strip were initiated by supramaximal rectangular pulses in all preparations (80 V of 0.5 ms duration at a frequency of 0.1 Hz). Krebs bicarbonate solution containing 1.25 μM chlorpheniramine maleate was the bathing solution and was continuously bubbled with 95% O2 and 5% CO2. The organ bath was maintained at 36°-37° C. The longitudinal muscle strip was allowed to equilibrate with continuous stimulation for a minimum of 90 min.

kappa opioid receptor = molecular target: T2, kappa opioid receptor (Cavia porcellus, UniProt P41144); test: Antagonism of ethylketazocine (kappa agonist) in the guinea pig ileum (GPI) preparation; design: key to Ke, EK: No agonist antagonism observed; conditions: for Kb: compound 100 or 200 nM, 15 min incubation, read-out: Ke, EK
T2 construct: a strip of longitudinal muscle with the myenteric plexus attached was prepared; from tissue; host or cells: guinea pig ileum longitudinal muscle with myenteric plexus
T2 sequence (P41144 whole entry): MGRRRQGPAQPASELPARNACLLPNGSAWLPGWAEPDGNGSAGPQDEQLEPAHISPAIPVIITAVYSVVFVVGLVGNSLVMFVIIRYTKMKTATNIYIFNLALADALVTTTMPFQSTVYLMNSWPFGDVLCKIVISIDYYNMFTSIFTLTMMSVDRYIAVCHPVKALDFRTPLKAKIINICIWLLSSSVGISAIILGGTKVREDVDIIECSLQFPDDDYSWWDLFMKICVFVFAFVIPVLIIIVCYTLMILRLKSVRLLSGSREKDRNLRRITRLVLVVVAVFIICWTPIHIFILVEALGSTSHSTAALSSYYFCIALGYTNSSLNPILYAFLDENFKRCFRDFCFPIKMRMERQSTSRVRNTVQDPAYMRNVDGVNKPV
Experimental: as §2

delta opioid receptor [2] = molecular target: T1, delta opioid receptor; test: Comparison as delta antagonist with ICI 174864 and M8008
[3] = system: mouse vas deferens (MVD) and guinea pig ileum (GPI) preparations; test: Agonist activity in the MVD and GPI preparations
Experimental: as §2, §1

[4] = compound 7 tested at 5 nM or less

Structure (SMILES) | Kb (delta opioid receptor [1]; agonist DADLE, MVD) | Kb (mu opioid receptor) | Kb (kappa opioid receptor) | relative delta antagonist potency (delta opioid receptor [1]) | other results
Oc1ccc2c3c1O[C@H]1c4[nH]c5cccc(F)c5c4C[C@@]4(O)[C@@H](C2)N(CC2CC2)CC[C@]314 [Compound 10] | 0.0055 µM | > 0.125 µM | > 0.17 µM |  | 
Cn1c2c(c3ccccc31)C[C@@]1(O)[C@H]3Cc4ccc(O)c5c4[C@@]1(CCN3CC1CC1)[C@H]2O5 [Compound 2] | 0.0015 µM | 0.0125 µM | 0.0222 µM | reduction of antagonist potency | 
COc1ccc2[nH]c3c(c2c1)C[C@@]1(O)[C@H]2Cc4ccc(O)c5c4[C@@]1(CCN2CC1CC1)[C@H]3O5 [Compound 4] | 0.0057 µM |  | 0.0126 µM |  | 
Oc1ccc2c3c1O[C@H]1c4[nH]c5ccccc5c4C[C@@]4(O)[C@@H](C2)N(CC2CC2)CC[C@]314 [Compound 1, 17-Cyclopropylmethyl-6,7-dehydro-4,5α-epoxy-3,14-dihydroxy-6,7,2',3'-indolomorphinan] | 0.00022 µM |  |  | an order of magnitude more potent than its substituted congeners | antagonism of the effect of the delta agonist DADLE / delta antagonist activity (delta opioid receptor [1]): highly active delta antagonist; potency compared with ICI 174864 (delta opioid receptor [2]): considerably more potent than the peptide delta antagonist, ICI 174864; potency relative to the peptide delta antagonist ICI 174864 (delta opioid receptor [2]; in one assay): at least 30 times
O=[N+]([O-])c1ccc2[nH]c3c(c2c1)C[C@@]1(O)[C@H]2Cc4ccc(O)c5c4[C@@]1(CCN2CC1CC1)[C@H]3O5 [Compound 6] | 0.168 µM | 0.092 µM | ≥ 0.2 µM |  | 
CN1CC[C@]23c4c5ccc(O)c4O[C@H]2c2[nH]c4ccccc4c2C[C@@]3(O)[C@H]1C5 [Compound 7] |  |  |  |  | agonist activity [3]: partial agonist activity; relative agonist potency ([3]; compared with the N-cyclopropyl analogues): substantially more potent as an agonist than the N-cyclopropyl analogues; Ke, DADLE (delta opioid receptor [1]; agonist DADLE, MVD, compound 7 tested at 5 nM or less): e; Ke, M (mu opioid receptor; [4]): e; Ke, EK (kappa opioid receptor; [4]): e
Oc1ccc2[nH]c3c(c2c1)C[C@@]1(O)[C@H]2Cc4ccc(O)c5c4[C@@]1(CCN2CC1CC1)[C@H]3O5 [Compound 9] |  |  | 0.0685 µM |  | 
Oc1ccc2c3c1O[C@H]1c4[nH]c5ccc(F)cc5c4C[C@@]4(O)[C@@H](C2)N(CC2CC2)CC[C@]314 [Compound 3] | 0.002 µM | 0.0617 µM | 0.0462 µM |  | 
Oc1ccc2c3c1O[C@H]1c4oc5ccccc5c4C[C@@]4(O)[C@@H](C2)N(CC2CC2)CC[C@]314 [Compound 8, 6,7,2',3'-Benzofurano-17-cyclopropylmethyl-6,7-dehydro-3,14-dihydroxy-4,5α-epoxymorphinan] | 0.0018 µM | 0.0308 µM | 0.0508 µM | less potent | antagonism of the effect of the delta agonist DADLE / delta antagonist activity (delta opioid receptor [1]): retains substantial delta antagonist activity; relative delta selectivity (delta opioid receptor [1]; compared with compound 1): less selective than 1
Oc1ccc2c3c1O[C@H]1c4nc5ccccc5cc4C[C@@]4(O)[C@@H](C2)N(CC2CC2)CC[C@]314 [Compound 17, 17-cyclopropylmethyl-6,7-dehydro-4,5α-epoxy-3,14-dihydroxy-6,7,2',3'-quinolinomorphinan] | 0.0027 µM |  | 0.0163 µM | A similar relationship was observed | 
COc1cccc2c3c([nH]c12)[C@@H]1Oc2c(O)ccc4c2[C@@]12CCN(CC1CC1)[C@H](C4)[C@]2(O)C3 [Compound 14] | 0.0066 µM | 0.035 µM |  |  | 
Cc1ccc2[nH]c3c(c2c1)C[C@@]1(O)[C@H]2Cc4ccc(O)c5c4[C@@]1(CCN2CC1CC1)[C@H]3O5 [Compound 5] | 0.0042 µM | > 0.16 µM | > 0.25 µM |  | 
Oc1ccc2c3c1O[C@H]1c4nc5ccccc5nc4C[C@@]4(O)[C@@H](C2)N(CC2CC2)CC[C@]314 [Compound 16, 6,7,2',3'-benzopyrazino-17-cyclopropylmethyl-6,7-dehydro-3,14-dihydroxy-4,5α-epoxymorphinan] | 0.0014 µM |  | 0.0134 µM | A similar relationship was observed | 
Oc1ccc2c3c1O[C@H]1c4[nH]c5c(F)cccc5c4C[C@@]4(O)[C@@H](C2)N(CC2CC2)CC[C@]314 [Compound 11] | 0.00035 µM | 0.0053 µM | > 0.33 µM |  | 
Cc1cccc2c3c([nH]c12)[C@@H]1Oc2c(O)ccc4c2[C@@]12CCN(CC1CC1)[C@H](C4)[C@]2(O)C3 [Compound 13] | 0.0015 µM | 0.0191 µM | > 0.33 µM |  | 
